Literature values, collected in US20080138440A1, “Methods of diagnosing and alleviating gadolinium toxicity” (priority 2006, published 2008).

Settings: high doses; cited from earlier work

**Q.** Which arrhythmias does the source give for `CNC[C@H](O)[C@@H](O)[C@H](O)[C@H](O)CO.CNC[C@H](O)[C@@H](O)[C@H](O)[C@H](O)CO.O=C([O-])CN(CCN(CC(=O)[O-])CC(=O)O)CCN(CC(=O)[O-])CC(=O)O.[Gd+3]` [gadopentetate dimeglumine injection, gadopentetate dimeglumine] here?
**A.** Arrhythmias have been noted
